# Molecular target: squalene epoxidase (SQLE) (Homo sapiens, UniProt Q14534)
# Experiment: SPR
# Format: binding
# Chain of squalene epoxidase (SQLE) (Q14534 whole entry): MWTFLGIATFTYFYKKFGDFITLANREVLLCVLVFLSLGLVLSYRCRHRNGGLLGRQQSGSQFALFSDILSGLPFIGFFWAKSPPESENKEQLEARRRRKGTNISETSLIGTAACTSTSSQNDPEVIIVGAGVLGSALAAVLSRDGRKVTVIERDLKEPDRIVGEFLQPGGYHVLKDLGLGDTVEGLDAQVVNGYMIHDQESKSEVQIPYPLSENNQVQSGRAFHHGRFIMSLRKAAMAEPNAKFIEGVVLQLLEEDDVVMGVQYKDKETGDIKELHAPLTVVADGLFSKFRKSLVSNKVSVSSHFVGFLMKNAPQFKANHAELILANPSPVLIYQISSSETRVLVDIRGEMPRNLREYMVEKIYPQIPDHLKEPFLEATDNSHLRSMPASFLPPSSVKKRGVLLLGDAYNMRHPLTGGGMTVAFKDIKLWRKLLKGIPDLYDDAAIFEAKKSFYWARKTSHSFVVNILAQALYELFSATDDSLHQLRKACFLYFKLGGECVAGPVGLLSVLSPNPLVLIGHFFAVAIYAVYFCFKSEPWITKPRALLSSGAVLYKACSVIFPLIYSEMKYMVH
compound,measurement,value
"C[C@@H]1CC[C@@]2(OC1)O[C@H]1C[C@H]3[C@@H]4CC=C5C[C@@H](O[C@@H]6O[C@H](CO)[C@@H](O[C@@H]7O[C@@H](CO)[C@H](O)[C@H]7O)[C@H](O)[C@H]6O[C@@H]6O[C@@H](C)[C@H](O)[C@@H](O)[C@H]6O)CC[C@]5(C)[C@H]4CC[C@]3(C)[C@H]1[C@@H]2C [PPI, Polyphyllin I]",Kd,26.3 µM

# From paper PMC9937801 (Journal of Pharmaceutical Analysis, 2022)
